The results in this text go back to patent publication US6333330A, “Pyrazolopyrimidinone CGMP PDE5 inhibitors for the treatment of sexual dysfunction” (Pfizer Inc., priority 1998, dated 2001).

For orientation: IC50 means the concentration that inhibits the measured activity by half.

The structures appear in SMILES notation.

The subject of the experiment is cGMP PDE5. The experiment can be described thus: In vitro PDE inhibitory activity against cGMP PDE5 (IC50). Type of experiment: biochemical. To be noted: table of Examples, read-out: IC50 (in vitro activities as inhibitors of cGMP PDE5). The protocol: In vitro PDE inhibitory activities against cyclic guanosine 3', 5'-monophosphate (cGMP) and cyclic adenosine 3',5'-monophosphate (cAMP) phosphodiesterases were determined by measurement of their IC50 values (the concentration of compound required for 50% inhibition of enzyme activity).
The required PDE enzymes were isolated from a variety of sources, including human corpus cavernosum, human and rabbit platelets, human cardiac ventricle, human skeletal muscle and bovine retina, essentially by the method of W. J. Thompson and M. M. Appleman (Biochem., 1971, 10, 311). In particular, the cGMP-specific PDE (PDE5) and the cGMP-inhibited cAMP PDE (PDE3) were obtained from human corpus cavernosum tissue, human platelets or rabbit platelets; the cGMP-stimulated PDE (PDE2) was obtained from human corpus cavernosum; the calcium/calmodulin (Ca/CAM)-dependent PDE (PDE1) from human cardiac ventricle; the cAMP-specific PDE (PDE4) from human skeletal is muscle; and the photoreceptor PDE (PDE6) from bovine retina.
Assays were performed using a modification of the "batch" method of W. J. Thompson et al. (Biochem., 1979, 18, 5228).
For `CCCOc1ccc(S(=O)(=O)N2CCN(CCO)CC2)cc1-c1nc2c(C(N)=O)nn(Cc3ccccn3)c2c(=O)[nH]1` [Example 5], the IC50 was 2.8 nM.

Turning to `CCCOc1ccc(S(=O)(=O)N2CCN(C)CC2)cc1-c1nc2c(C(=O)NC)nn(Cc3cccnc3)c2c(=O)[nH]1` [Example 8], the IC50 worked out at 4.1 nM.

Turning to `CCOc1ccc(S(=O)(=O)N2CCN(C)CC2)cc1-c1nc2c(C(=O)NC)nn(Cc3ccccc3)c2c(=O)[nH]1` [Example 19, 1-Benzyl-5-[2-ethoxy-5-(4-methylpiperazin-1-ylsulphonyl)]-7-oxo-1,6-dihydro-1H-pyrazolo[4,3-d]pyrimidine-3-N-methylcarboxamide], the IC50 stood at 3.4 nM.

Regarding `CCN1CCN(S(=O)(=O)c2cnc(OCCOC)c(-c3nc4c(C(N)=O)nn(Cc5ccccn5)c4c(=O)[nH]3)c2)CC1` [Example 33, 5-[5-(4-Ethylpiperazin-1-ylsulphonyl)-2-(2-methoxyethoxy)pyridin-3-yl]-7-oxo-1-(pyridin-2-yl)methyl-1,6-dihydro-1H-pyrazolo[4,3-d]pyrimidine-3-carboxamide], the IC50 was 2.8 nM.

Take `CCOc1ncc(S(=O)(=O)N2CCN(CC)CC2)cc1-c1nc2c(-c3cccnc3)n(Cc3ncccn3)nc2c(=O)[nH]1` [Example 42]: the half-inhibitory concentration (IC50) turned out to be 2.26 nM.
